Source: PubChem BioAssay AID651563 (Sanford-Burnham Center for Chemical Genomics, 2012)
The source made the active and inactive calls.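 Rule for the calls: active = compounds whose IC50 is 20 micromolar or lower, counted as confirmed SKN-1 reporter blockers; inactive = the rest.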

Test system: C. elegans VP596 Pgst-4::GFP/RFP ratio, acrylamide, 24 h
Assay: C. elegans gst-4 reporter suppression, concentration series – whole organism, GFP/RFP fluorescence ratio, set 2, strain VP596, SKN-1 inhibitor project, dose response (AID 651563);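 note: red signal is driven by the dop-3 promoter and serves as the normalizer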

Row | Structure (SMILES) | IC50
1 | Brc1ccc(-c2nnc(-c3ccco3)o2)cc1 | 10.8 µM
2 | c1csc(-c2nc(-c3ccncc3)no2)c1 | 36.1 µM (inactive)
3 | O=C(Nc1ccc(Cl)cn1)c1ccccc1F | 20.6 µM (inactive)
4 | O=C(Nc1nc(-c2ccc(Cl)s2)cs1)c1cccs1 | 6.63 µM
5 | O=C(/C=C/Nc1ccc(F)cc1F)c1cccs1 | 5.04 µM
6 | Brc1ccc2nc(N3CCCC3)sc2c1 | 25.8 µM (inactive)
7 | c1ccc(-n2nnc(-c3nccs3)n2)cc1 | > 100 µM (inactive)
8 | Clc1ccc(OCCCc2nc(-c3ccncc3)no2)c(Cl)c1 | 29.5 µM (inactive)
9 | O=C(c1cccs1)c1ccc(-c2cccs2)s1 | 9.1 µM
10 | O=[N+]([O-])c1ccc2cn(-c3ccccc3)nc2c1 | 2.81 µM
11 | Brc1ccc(CSc2nnc(-c3ccco3)o2)cc1 | 7.32 µM
12 | Fc1ccc(COc2ccc(-c3nnco3)cc2)c(Cl)c1 | 6.4 µM
13 | Cc1cc(OCc2cccc(Cl)c2)c(C)cc1CN1CCOCC1 | 15.2 µM
14 | O=C(Nc1nccs1)c1ccc2ccccc2c1 | 23.8 µM (inactive)
15 | Clc1ccc(-c2nc(-c3ccncc3)no2)c(Cl)c1 | > 100 µM (inactive)
16 | N=C1C=CC(=C(c2ccc(N)cc2)c2ccc(N)cc2)C=C1 | 20.2 µM (inactive)
17 | CC(C)(C)N=C1NN=C(c2ccc(Cl)cc2)CS1 | 25.9 µM (inactive)
18 | Fc1ccc(COc2ccc(-c3nnco3)cc2)cc1 | 7.45 µM
19 | O=C(/C=C/Nc1ccccc1F)c1cccs1 | 27.9 µM (inactive)
20 | O=C(/C=C/Nc1ccc(Br)cc1F)c1ccco1 | 2.19 µM
21 | c1ccc(-c2csc(Nc3ccccn3)n2)cc1 | 16.8 µM
22 | Fc1ccccc1OCCSc1nc2ccccc2o1 | 60.7 µM (inactive)
23 | Clc1ccc(-n2nnc(-c3cccnc3)n2)cc1Cl | > 100 µM (inactive)
24 | c1ccc(N2CCN(c3cnc4ccccc4n3)CC2)cc1 | > 100 µM (inactive)
25 | Brc1ccc2oc(-c3ccn[nH]3)cc2c1 | 10.3 µM

Row | Structure (SMILES) | IC50
26 | O=C(/C=C/c1ccccc1)/C=C/c1ccccc1 | 16.2 µM
27 | O=C(Nc1ccc(OC(F)F)c(Cl)c1)c1cccc(OC(F)F)c1 | > 100 µM (inactive)
28 | Clc1ccc(C=Cc2ccccn2)cc1 | 10.4 µM
29 | O=C(/C=C/Nc1ccc(F)c(F)c1)c1cccs1 | 11.4 µM
30 | c1ccc(-c2csc(-c3cccnc3)n2)cc1 | > 100 µM (inactive)
31 | O=c1c2ccccc2ccc2ccccc12 | 33.8 µM (inactive)
32 | Brc1cccc(OCCSc2ncccn2)c1 | > 100 µM (inactive)
33 | Brc1ccc(-c2nc(-c3ccccc3)no2)o1 | 2.54 µM
34 | Clc1ccc(Cn2cc(Br)cn2)cc1Cl | 30.6 µM (inactive)
35 | O=C(/C=C/c1ccccc1)Nc1ccc(CN2CCOCC2)cc1 | 19.3 µM
36 | c1ccc(-c2ccc(-n3ccnc3)cc2)cc1 | 10.6 µM
37 | C(=C\c1ccc2ccccc2n1)/c1ccccc1 | > 100 µM (inactive)
38 | Fc1ccc(-c2csc(-c3ccncc3)n2)cc1 | 5.86 µM
39 | O=C(Oc1ccccc1)N1CCN(c2ccc(F)cc2)CC1 | > 100 µM (inactive)
40 | c1ccc2sc(SCc3ccc(-c4nnco4)cc3)nc2c1 | 11.9 µM
41 | CC1(C)c2ccccc2C(=O)c2ccccc21 | > 100 µM (inactive)
42 | O=[N+]([O-])c1ccc(Nc2ccccc2)cc1 | 12.2 µM
43 | CCOC(=O)Nc1nc(-c2ccc(F)cc2F)cs1 | 18.1 µM
44 | COc1ccc2c(c1)OC/C(=C/c1cccs1)C2=O | 16.8 µM
45 | Fc1ccc(OCc2nc(-c3cccs3)no2)cc1 | 31.5 µM (inactive)
46 | Cc1ccc(CSc2nnc(-c3ccco3)o2)cc1 | 23.8 µM (inactive)
47 | Cc1ccc(-c2nc(-c3ccncc3)no2)c(C)c1 | > 100 µM (inactive)
48 | Fc1ccc(-n2nnc(-c3nccs3)n2)cc1 | 24.4 µM (inactive)
49 | Clc1ncc(CSc2ccccc2)s1 | > 100 µM (inactive)
50 | Cc1nc2ccccc2cc1OCc1ccc(Cl)cc1 | > 100 µM (inactive)

Row | Structure (SMILES) | IC50
51 | C=CCSc1ncc(-c2ccccc2)cn1 | 27.2 µM (inactive)
52 | CCOc1cc(CNC2CCCC2)cc(Cl)c1OCc1ccccc1 | 22.4 µM (inactive)
53 | Clc1ccc(CSc2ncn(-c3ccccc3)n2)cc1 | 11.2 µM
54 | Brc1ccc(-c2nc(-c3ccccn3)no2)o1 | 35.8 µM (inactive)
55 | Clc1ccc(OCc2cnc(Cl)s2)cc1 | 23.1 µM (inactive)
56 | Clc1ccsc1-c1ccc2ccccc2n1 | 20.3 µM (inactive)
57 | COc1c(C(=O)Nc2nccs2)ccc2ccccc12 | 41.8 µM (inactive)
58 | Cc1ccc(N=C/C(C(=O)C(F)(F)F)=C(\O)c2ccco2)cc1Cl | 14.3 µM
59 | CCOc1cc(CNCCSc2nnnn2C)cc(Br)c1OCc1ccc(F)cc1 | 2.73 µM
60 | Brc1ccc(-c2nnc(-c3cccnc3)o2)cc1 | > 100 µM (inactive)
61 | O=C(/C=C/Nc1ccc(F)c(Cl)c1)c1ccco1 | 16.7 µM
62 | O=C(Nc1nc2c(ccc3ccccc32)s1)c1ccco1 | 17.7 µM
63 | O=C(CC(O)(C(F)(F)F)C(F)(F)F)Nc1ccc(Cl)c(Cl)c1 | 27.9 µM (inactive)
64 | Brc1ccc(CSc2nnc(-c3cccnc3)o2)cc1 | 29.1 µM (inactive)
65 | O=C(Nc1nc(-c2ccc(Cl)s2)cs1)c1ccccc1 | 13.2 µM
66 | CCOc1ccc(-c2nc(-c3cccnc3)no2)cc1 | 19 µM
67 | Fc1ccc(-n2nnc(-c3cccnc3Cl)n2)cc1 | 8.82 µM
68 | CN(C)C(CNC(=O)CCc1nc2cc(Cl)ccc2n(Cc2ccccc2)c1=O)c1ccccc1 (centres undefined) | 26.1 µM (inactive)
69 | Cc1ccc(NC(=O)c2ccc(F)cc2F)cc1 | > 100 µM (inactive)
70 | O=[N+]([O-])c1ccc(OCc2cnc(Cl)s2)cc1 | 13.7 µM
71 | O=C(/C=C/c1ccco1)Nc1nc(-c2ccccc2)cs1 | 42.6 µM (inactive)
72 | O=[N+]([O-])c1ccc(NCc2ccc(Cl)cc2)nc1 | 18.1 µM
73 | Fc1ccc(-c2cnc(-c3cccs3)o2)cc1 | 27.5 µM (inactive)
74 | Nc1ccc2c(Cl)cc(Cl)cc2c1 | 28.5 µM (inactive)
75 | Fc1ccccc1-c1nc(-c2ccncc2)no1 | 38.6 µM (inactive)

Row | Structure (SMILES) | IC50
76 | Fc1ccc(-n2nnc(-c3cccnc3)n2)cc1 | 24.8 µM (inactive)
77 | CC1=NN(c2ccccc2)C(=O)/C1=C\C=C1/N(C)c2ccccc2C1(C)C | 14.4 µM
78 | c1ccc(-c2cnc(-c3ccccc3)nn2)cc1 | > 100 µM (inactive)
79 | Clc1ccc(Cn2nnc(-c3ccccc3)n2)cc1 | 20.9 µM (inactive)
80 | O=C(/C=C/c1cccs1)c1ccc(Br)cc1 | 20.8 µM (inactive)
81 | COc1cc(CNC2CCCC2)cc(Cl)c1OCc1ccc(F)cc1 | 11.8 µM
82 | Fc1ccc(Cn2nnc(-c3ccc(CN4CCOCC4)cc3)n2)cc1 | 19.9 µM
83 | Clc1ccc(OCc2nc(-c3ccncc3)no2)c(Br)c1 | 31.2 µM (inactive)
84 | N#Cc1cncc(C#Cc2ccccc2)c1 | 31 µM (inactive)
85 | c1ccc(-c2nc3cc4ccccc4cc3[nH]2)nc1 | 16.1 µM
86 | Brc1ccc(-c2cn3ccccc3n2)s1 | 18.1 µM
87 | O=C(c1ccc(Cl)cc1)c1cc([N+](=O)[O-])ccc1N1CCOCC1 | > 100 µM (inactive)
88 | O=[N+]([O-])c1ccc(COc2ccc(CN3CCCC3)cc2)cc1 | 8.62 µM
89 | CSc1ccc(-c2cc(=O)c3ccccc3o2)cc1 | 17.5 µM
90 | c1ccc(-c2nc(-c3ccncc3)no2)cc1 | 24.7 µM (inactive)
91 | c1ccc(-c2csc(-c3ccncc3)n2)cc1 | 12.6 µM
92 | Cc1ccc(C=Cc2ccccn2)cc1 | > 100 µM (inactive)
93 | O=C(Nc1ccc(Cl)c(Cl)c1)c1ccco1 | 45.4 µM (inactive)
94 | O=C(/C(C=Nc1ccc(Br)cc1)=C(/O)c1ccco1)C(F)(F)F | 21 µM (inactive)
95 | O=C(/C=C/Nc1ccc(F)cc1F)c1ccco1 | 22.7 µM (inactive)
96 | COC(=O)c1cccc(CC2(C)C(=O)Nc3ccc(OC(F)(F)F)cc32)c1 (centres undefined) | > 100 µM (inactive)
97 | Cn1c(=O)c2c(-c3ccccc3)n(-c3ccc(N)cc3)cc2n(C)c1=O | 23.5 µM (inactive)
98 | Clc1ccc(C=Cc2ccccn2)c(Cl)c1 | 11.9 µM
99 | Cc1ccc(Nc2nc(-c3cccs3)cs2)nc1 | 30.2 µM (inactive)
100 | C(=C\c1nnc(-c2cccs2)o1)/c1ccccc1 | 15.9 µM

Row | Structure (SMILES) | IC50
101 | O=C(C=Cc1ccco1)c1ccc2ccccc2c1 | 31.7 µM (inactive)
102 | Fc1ccccc1CSc1ccc(-c2ccco2)nn1 | > 100 µM (inactive)
103 | O=[N+]([O-])c1ccc2nc(N3CCCC3)sc2c1 | > 100 µM (inactive)
104 | O=C(Nc1ccc(CN2CCOCC2)cc1)c1cc2ccccc2o1 | 17.5 µM
105 | COc1cc(SC)ccc1C(=O)Nc1nccs1 | > 100 µM (inactive)
106 | N/C(=N\OC(=O)c1cc(Br)ccc1Cl)c1ccccn1 | 53.5 µM (inactive)
107 | c1ccc2oc(SCc3nc4ccccc4s3)nc2c1 | 27.4 µM (inactive)
108 | CCc1ccc(C(=O)Nc2ccc3nc(C)ccc3c2)cc1 | 14.2 µM
109 | O=C1NC2C(=CC(O)C(O)C2O)c2cc3c(cc21)OCO3 (centres undefined) | > 100 µM (inactive)
110 | O=C(Nc1nc(SCc2ccc(F)cc2)ns1)c1ccco1 | > 100 µM (inactive)
111 | CN(C)CC(O)c1ccc(C=Cc2ccc(Cl)cc2)cc1 (centres undefined) | 18.4 µM
112 | O=C(NCc1ccncc1)c1ccc(-c2ccc(F)c(F)c2)c2ccoc12 | 29.8 µM (inactive)
113 | O=C(Nc1nc(-c2ccccc2)cs1)c1cccs1 | 21.9 µM (inactive)
114 | C(=C\c1nc(-c2ccncc2)no1)/c1ccccc1 | 19.1 µM
115 | O=C(/C=C/c1ccc(Cl)cc1Cl)Nc1ccc(CN2CCOCC2)cc1 | > 100 µM (inactive)
116 | C=CCSc1nnc(-c2ccc(Cl)cc2Cl)o1 | 25.2 µM (inactive)
117 | Clc1ccc(-c2nnc(-c3ccco3)o2)cc1 | 15.8 µM
118 | Cc1oc(-c2ccc(-c3ccccc3)cc2)nc1CN(C)C1CCOC1 (centres undefined) | 20.6 µM (inactive)
119 | Fc1ccc(CSc2ncnc3ccccc23)cc1 | 24.2 µM (inactive)
120 | c1ccc(Nc2nc(-c3cccs3)cs2)nc1 | 21.7 µM (inactive)
121 | Clc1ccc2nc(-c3ccc(Br)s3)cn2c1 | 21.6 µM (inactive)
122 | Fc1ccc(-c2nc3ccc(Cl)cn3c2Cc2ccsc2)cc1 | > 100 µM (inactive)
123 | O=C(/C=C/c1ccc(Cl)cc1)Nc1ccc(CN2CCOCC2)cc1 | 23.3 µM (inactive)
124 | O=[N+]([O-])c1ccc2nc(-c3ccccc3)oc2c1 | 3.84 µM
